In patent US10173968B2, “Bishydrazone-based antifungal agents” (University of Kentucky Research Foundation, priority 2016, dated 2019):

Experiments:
[1] = Mammalian cell cytotoxicity, resazurin; format: cell-based; conditions: human
Method: Another important aspect to consider during the development of antimicrobial agents is their potential toxicity towards mammalian cells. Having established the potent antimicrobial activities of the bis(N-amidino)hydrazones and N-amidino-N′-aryl-bishydrazones against bacteria and fungi, the toxicity profile of these compounds was determined against two mammalian cell lines (A549 and BEAS-2B; FIGS. 4A-B). […]. Cytotoxicity assays were performed as previously described. The human lung carcinoma epithelial cells A549 and the normal human bronchial epithelial cells BEAS-2B were grown in F12-K and DMEM medium containing 10% fetal bovine serum (FBS) and 1% antibiotics, respectively. The confluent cells were trypsinized with 0.05%-trypsin-0.53 mM EDTA, centrifuged (1,200 rpm) and resuspended in fresh medium (F12-K or DMEM). The cells were seeded into 96-well microtiter plates at a density of 3,000 cells/well and were grown overnight. […] Triton X-100® (0.5%, v/v) gave complete loss of cell viability and was used as the positive control. The percent cell survival was calculated as: (test value/control value)×100, where control value represents cells+resazurin−drug, and test value represents cells+resazurin+drug.

[2] = system: all bacterial strains tested; assay: Antibacterial MIC, summary over the panel; format: cell-based; conditions: read-out: antibacterial MIC values
Method: MIC values were determined against a variety of Gram-positive (strains A-D) and Gram-negative (E-J) bacterial and mycobacterial (K) strains using the double-dilution method, as previously published. Preliminary screening was performed using 500 μM of each compound.

[3] = system: C. albicans ATCC 10231; format: cell-based, Candida albicans; conditions: repeated treatments with sub-MIC drug concentrations
[4] = system: MRSA (strain C); format: cell-based, Staphylococcus aureus; conditions: up to 15 passages
Method: (§1) The bacteria were grown in MH broth at 37° C. for these experiments. […] The resulting cultures were diluted 1:1000 and grown until the culture reached ˜300,000 cfu/mL. That culture was then further diluted 1:1000 and used to determine the next round of MIC values.

[5] = system: P. aeruginosa ATCC 27853 (strain I); format: cell-based; conditions: up to 15 passages
Method: as §1

[6] = system: C. albicans ATCC 10231; assay: Intracellular ROS production, DCFH-DA fluorescence assay; format: cell-based, Candida albicans; conditions: at 1× and 2× MIC values, 1 h at 35° C.
Text: We used the 2′,7′-dichlorodihydrofluorescein diacetate (DCFH-DA) dye as a probe to measure the production of ROS in yeast cells upon treatment with our compounds. DCFH-DA can easily cross the cell membranes and be hydrolyzed by cellular esterases to the non-fluorescent 2′,7′-dichlorodihydrofluorescein (DCFH), which can further be oxidized to the highly fluorescent 2′,7′-dichlorofluorescein (DCF) by the intracellular ROS. Five mL of RPMI 1640 medium were inoculated using a single colony of C. albicans ATCC 10231 (strain A) in a Falcon tube and grown overnight at 35° C. at 200 rpm. The overnight culture was diluted by adding 200 μL of yeast cells to 800 μL of the same medium. […] H2O2 at 1 mM was also used as a positive control. Cells were centrifuged and washed twice with PBS buffer (pH 7.2). Cells were resuspended in the same buffer and incubated with DCFH-DA (20 μg/mL) for 30 min in the dark. Afterwards, cells were centrifuged and washed with PBS buffer to remove excess DCFH-DA. Glass slides with 10-15 μL of each mixture were prepared and observed in bright field and fluorescence modes (FITC filter set, excitation and emission wavelengths of 488 and 512 nm, respectively) using a Zeiss Axovert 200M fluorescence microscope (FIG. 3).

[7] = target: hERG channel (Homo sapiens, UniProt Q12809); assay: in vitro; conditions: pH 7.4
Sequence of hERG channel (Q12809 whole entry): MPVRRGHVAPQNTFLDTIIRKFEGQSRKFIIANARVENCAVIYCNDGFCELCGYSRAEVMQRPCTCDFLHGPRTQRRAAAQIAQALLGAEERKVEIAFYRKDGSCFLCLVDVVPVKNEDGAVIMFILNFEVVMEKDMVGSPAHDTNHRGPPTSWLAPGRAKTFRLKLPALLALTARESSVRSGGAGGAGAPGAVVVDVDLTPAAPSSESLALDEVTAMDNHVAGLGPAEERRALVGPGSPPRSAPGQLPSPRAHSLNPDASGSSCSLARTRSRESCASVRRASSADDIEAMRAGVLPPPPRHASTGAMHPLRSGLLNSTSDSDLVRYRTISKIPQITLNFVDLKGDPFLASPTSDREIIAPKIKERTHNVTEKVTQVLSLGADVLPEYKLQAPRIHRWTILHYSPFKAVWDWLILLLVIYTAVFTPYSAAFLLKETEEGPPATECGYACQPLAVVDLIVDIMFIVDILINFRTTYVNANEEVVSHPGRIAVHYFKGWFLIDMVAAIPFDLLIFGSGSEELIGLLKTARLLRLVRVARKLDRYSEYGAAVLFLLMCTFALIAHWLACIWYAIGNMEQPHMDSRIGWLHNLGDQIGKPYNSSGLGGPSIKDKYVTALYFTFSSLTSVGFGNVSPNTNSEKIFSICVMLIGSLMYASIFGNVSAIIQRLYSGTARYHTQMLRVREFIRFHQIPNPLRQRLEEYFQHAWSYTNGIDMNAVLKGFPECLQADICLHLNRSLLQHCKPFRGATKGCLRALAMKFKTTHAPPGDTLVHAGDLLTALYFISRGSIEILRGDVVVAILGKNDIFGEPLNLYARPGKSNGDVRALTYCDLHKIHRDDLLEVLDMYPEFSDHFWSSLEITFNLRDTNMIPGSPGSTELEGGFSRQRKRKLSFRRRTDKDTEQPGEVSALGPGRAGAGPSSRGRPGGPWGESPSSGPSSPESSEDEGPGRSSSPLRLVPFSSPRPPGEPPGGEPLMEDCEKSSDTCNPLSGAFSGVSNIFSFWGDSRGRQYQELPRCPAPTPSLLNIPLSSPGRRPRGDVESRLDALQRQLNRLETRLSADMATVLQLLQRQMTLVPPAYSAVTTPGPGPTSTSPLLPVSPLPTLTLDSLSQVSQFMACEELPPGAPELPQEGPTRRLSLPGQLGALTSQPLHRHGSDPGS
Method: Assays were conducted in duplicate, and three independent assays were performed for each compound that was evaluated. Cell membrane suspension (5 μg) was added to duplicate tubes containing assay buffer (50 mM Tris, 10 mM KCl, and 1 mM MgCl2, pH 7.4), 25 μL of a single concentration of analogue (a concentration range of 10 nM-100 μM was employed for each experiment), and 25 μL of [^3H]dofetilide (5 nM, final concentration) for an assay volume of 250 μL. Nonspecific binding was assessed in the presence of 1 mM amitriptyline. Binding occurred for 60 min at 25° C. and was terminated by rapid filtration through Whatman GF/B filters, which were pre-soaked in 0.5% PEI for 2 h. Filters were washed three times with ˜1 mL of ice-cold assay buffer. Radioactivity retained by the filters was determined by liquid scintillation counting by using a Tri-Carb 2100TR liquid scintillation analyzer (PerkinElmer Life and Analytical Sciences, Boston, Mass.).

[8] = system: VRE (strain D); format: cell-based, enterococcus; conditions: up to 15 passages
Method: as §1

[9] = system: L. monocytogenes ATCC 19115 (strain B); format: cell-based, Listeria monocytogenes; conditions: up to 15 passages
Method: as §1

[10] = A549 lung carcinoma epithelial cells, A549, 24 h
[11] = BEAS-2B normal bronchial epithelial cells

## Cl.N=C(N)N/N=C/c1ccc(-c2ccc(/C=N/Nc3ccc(Cl)cc3)cc2)cc1 [Compound 7Ad, (E)-2-((4′-((E)-(2-(4-Chlorophenyl)hydrazono)methyl)-[1,1′-biphenyl]-4-yl)methylene)hydrazine-1-carboximidamide monohydrochloride]
[1]; [10]
  IC50 at 24 h: 7.8 to 15.6 mg/L
[1]; [11]
  IC50 at 24 h: 7.8 to 15.6 mg/L
[2]
  MIC: 0.4 to 3.3 mg/L
other
  melting point: > 380 °C

## Cl.N=C(N)N/N=C/c1ccc(-c2ccc(/C=N/Nc3ccc(F)cc3F)cc2)cc1 [Compound 7Af, (E)-2-((4′-((E)-(2-(2,4-Difluorophenyl)hydrazono)methyl)-[1,1′-biphenyl]-4-yl)methylene) hydrazine-1-carboximidamide, monohydrochloride]
[1]; [10]
  IC50 at 24 h: 7.8 to 15.6 mg/L
[1]; [11]
  IC50 at 24 h: 7.8 to 15.6 mg/L
[2]
  MIC: 0.4 to 3.3 mg/L
other
  melting point: > 380 °C

## Cl.Cl.N=C(N)N/N=C/c1ccc(-c2cccc(/C=N/NC(=N)N)c2)cc1 [Compound 3B, (2E,2′E)-2,2′-([1,1′-Biphenyl]-3,4′-diylbis(methanylylidene))bis(hydrazine-1-carboximidamide) dihydrochloride]
[1]; [10]
  IC50 at 24 h: 7.8 to 15.6 mg/L
[1]; [11]
  IC50 at 24 h: 7.8 to 15.6 mg/L
[2]
  MIC: 0.4 to 3.3 mg/L

## Cl.N=C(N)N/N=C/c1ccc(-c2ccc(C=NNc3ccccc3Cl)cc2)cc1 (mixture of isomers) [Compound 7Aa, E)-2-((4′-((E and Z)-(2-(2-Chlorophenyl)hydrazono)methyl)-[1,1′-biphenyl]-4-yl)methylene)hydrazine-1-carboximidamide monohydrochloride]
[3]
  development of drug resistance: unable to develop drug resistance
[4]
  development of resistance (passages after which resistance developed): twelve
[5]
  development of resistance (passages after which resistance developed): twelve
[6]
  intracellular ROS production: significantly increased intracellular ROS production
[7]
  IC50 at 60 min: 1.14 ± 0.267 µM
[8]
  development of resistance (passages after which resistance developed): did not develop resistance
[9]
  development of resistance (passages after which resistance developed): did not develop resistance
